Measured values taken from patent US8153592B2, “Modulating toll-like receptor activity” (Mayo Foundation for Medical Education and Research, priority 2005, dated 2012).

How the values were obtained:
[1] = biological target: T1, TLR4 (Mus musculus, UniProt Q9JHF9+Q9QUK6); test: NFκB-luciferase reporter assay in HEK/TLR4(+) cells (Example 1: TLR4 activators, extracellular matrix, elastase); format: cell-based, murine
T1 construct: expressed in transfected cells
T1 sequence (Q9QUK6 26-835): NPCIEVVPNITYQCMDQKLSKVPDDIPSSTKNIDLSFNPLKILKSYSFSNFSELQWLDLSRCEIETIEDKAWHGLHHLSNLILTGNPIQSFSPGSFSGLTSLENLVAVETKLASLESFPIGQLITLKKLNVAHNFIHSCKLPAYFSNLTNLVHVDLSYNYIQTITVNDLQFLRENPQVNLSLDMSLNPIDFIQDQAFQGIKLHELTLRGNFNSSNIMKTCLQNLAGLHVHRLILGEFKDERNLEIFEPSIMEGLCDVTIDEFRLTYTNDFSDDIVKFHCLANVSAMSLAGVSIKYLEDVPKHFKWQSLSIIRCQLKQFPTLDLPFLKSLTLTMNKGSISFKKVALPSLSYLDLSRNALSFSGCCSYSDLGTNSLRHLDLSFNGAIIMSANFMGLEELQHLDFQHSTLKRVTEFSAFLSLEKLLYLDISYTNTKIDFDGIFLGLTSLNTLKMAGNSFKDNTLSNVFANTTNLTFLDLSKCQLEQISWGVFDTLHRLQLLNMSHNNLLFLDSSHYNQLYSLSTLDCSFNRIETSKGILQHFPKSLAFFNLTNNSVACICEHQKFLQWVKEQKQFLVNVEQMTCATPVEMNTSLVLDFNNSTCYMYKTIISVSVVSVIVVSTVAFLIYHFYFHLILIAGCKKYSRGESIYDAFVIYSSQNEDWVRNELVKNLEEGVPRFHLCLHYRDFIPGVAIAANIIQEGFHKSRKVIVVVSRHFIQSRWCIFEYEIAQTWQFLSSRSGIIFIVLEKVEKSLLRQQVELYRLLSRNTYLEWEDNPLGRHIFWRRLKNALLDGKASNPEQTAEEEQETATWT
T1 sequence (Q9JHF9 19-160): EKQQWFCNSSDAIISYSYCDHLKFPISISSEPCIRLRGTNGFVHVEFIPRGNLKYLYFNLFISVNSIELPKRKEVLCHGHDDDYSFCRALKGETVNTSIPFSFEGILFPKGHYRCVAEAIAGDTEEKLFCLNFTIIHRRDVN
Excerpt: HEK 293 cells were stabily transfected with the TLR4 and MD2 or CD14 expression plasmids, each of which encode a component of a complete, functional TLR4 receptor complex (Akira and Takeda, Nat. Rev. Immunol., 4:499-511 (2004)) using Superfect (Qiagen, Valencia, Calif.) following the manufacturer's instructions. TLR4- and MD2- or CD14-expressing HEK 293 cells were obtained by culturing the transfected cells with appropriate antibiotic selection medium and cloning by limiting dilution in the selection medium. HEK 293 cells expressing TLR4, MD2, and CD14 were generated by transfecting HEK 293 cells expressing TLR4 and MD2 with the CD14 expression plasmid and selecting clones using appropriate antibiotic containing medium. Cell lines expressing TLR4 and MD2 and/or CD14 were then maintained in DMEM supplemented with 10% fetal bovine serum and the appropriate selection antibiotics. Control cell lines were transfected with empty expression vectors and incubated in selection conditions as described above.
Activation of NFκB was measured using a NFκB-luciferase reporter assay. HEK 293 cell lines stabily expressing TLR4, MD2, and/or CD14, or control cells were seeded into 24 well tissue culture plates (2×10^5 cells/well) in 1.0 mL DMEM containing 10% fetal bovine serum and penicillin and streptomycin. The cells were allowed to adhere to the culture wells at 37° C. overnight and were then transfected with 0.1 μg pTK Renilla-luciferase and 0.1 μg NFκB-firefly-luciferase using Superfect Transfection Reagent (Qiagen). Following transfection, the cells were washed once with phosphate buffered saline and cultured for 24 hours at 37° C. in 1.0 mL DMEM containing 0.5% fetal bovine serum. After various treatments, the culture medium was aspirated, and the cells were washed once with PBS. The cells were then lysed in 150 μL Passive Lysis Buffer (Promega) with rocking at room temperature for 15 minutes. Renilla- and Firefly-luciferase were assayed simultaneously using Dual-Luciferase Reporter Assay System (Promega) and a TD-20/20 luminometer (Turner Designs, Sunnyvale, Calif.). Activation of NFκB was reported as a ratio of the firefly luciferase activity to the constitutively expressed Renilla luciferase internal control, and as the mean of triplicate wells.

[2] = biological target: T2, TLR4/MD2 complex (Mus musculus, UniProt Q9JHF9+Q9QUK6); test: Cell surface expression of TLR4/MD2 on HEK/TLR4(+) cells (flow cytometry); format: cell-based, murine; conditions: HEK/TLR4 cells treated with SDF-1
T2 construct: expressed in transfected cells; host or cells: HEK 293 (HEK/TLR4(+))
T2 sequence (Q9QUK6 26-835): T1 sequence (Q9QUK6 26-835)
T2 sequence (Q9JHF9 19-160): T1 sequence (Q9JHF9 19-160)
Protocol: FIG. 2. TLR4 signaling is conditioned by extracellular matrix. The impact of extracellular matrix on TLR4 activation was tested in cells cultured in wells coated with extracellular matrix. (A) and (B) Inhibition of NFκB activation by extracellular matrix in HEK/TLR4(+) cells. HEK/TLR4(+) cells were cultured in wells coated with extracellular matrix (ECM) or fibronectin (FN) and transfected with NFκB- and control-luciferase reporter genes. TLR4 signaling in response to increasing amounts of heparan sulfate (A) or LPS (B) was measured six hours after stimulation. […] The cells were tested for cell surface expression of the TLR4/MD2 complex by flow cytometry using monoclonal antibodies specific for that complex. […] (D) and (E) Inhibition of p38 MAP Kinase activation by extracellular matrix in RAW 264 cells. (D) RAW 264.7 murine macrophages were cultured in wells coated with extracellular matrix (ECM) or fibronectin (FN). The cells were stimulated with heparan sulfate (left panel) or LPS (right panel) for the indicated time (minutes), after which the cells were lysed and activated p38 MAPK (phospho p38) was measured by immunoblotting. […] Similar results were obtained for cells stimulated with LPS. The data shown are representative of 3 separate experiments and indicate that activation of TLR4 signaling is inhibited by extracellular matrix.

[3] = biological target: T1, TLR4; test: NFκB-luciferase reporter assay in HEK/TLR4(+) cells with perturbed CXCR4 (Examples 2 and 3); format: cell-based, murine
Protocol: HEK 293 cells (human embryonic kidney cells) from American Type Culture Collection (ATCC) were cultured in DMEM containing 10% fetal bovine serum, penicillin, and streptomycin. […] TLR4/MD2/CD14 expressing HEK 293 cells were selected using appropriate antibiotic selection medium and were then cloned by limiting dilution in the same medium. Control cells were prepared using empty expression vectors and identical transfection and selection procedures.
HEK 293 cell lines stably expressing TLR4/MD2/CD14 were seeded into 24-well tissue culture plates (2×10^5 cells/well) and allowed to adhere at 37° C. overnight. The adherent cells were transfected with 0.1 μg pTK Renilla-luciferase and 0.1 μg NFκB-firefly-luciferase using Superfect Transfection Reagent (Qiagen) and then cultured for 24 hours at 37° C. in 1 mL DMEM containing 0.5% fetal bovine serum. The cells were stimulated as indicated, washed with phosphate buffered saline, and lysed with 150 μL Passive Lysis Buffer (Promega). The amount of Renilla- and Firefly-luciferase in the cell lysates was assayed simultaneously using Dual-Luciferase Reporter Assay System (Promega) and a TD-20/20 lumenometer (Turner Designs, Sunnyvale, Calif.). Activation of NFκB-firefly luciferase reporter activity is given as the ratio of firefly luciferase to the internal control Renilla luciferase activity, determined and expressed as the mean of triplicate wells.

[4] = biological target: T3, CXCR4 (Homo sapiens, UniProt P61073); test: CXCR4 cell surface level on Jurkat T cells (FACS, internalization of CXCR4); format: cell-based; conditions: 37° C. for 30 minutes
T3 construct: endogenous in cells; host or cells: Jurkat T cells
Protocol: To determine if the purified, recombinant [Hisx6]SDF-1 polypeptide activates CXCR4, Jurkat T cells were stimulated (37° C. for 30 minutes) with buffer alone or with buffer containing a synthetic SDF-1 polypeptide or the purified recombinant [Hisx6]SDF-1 polypeptide. Control cells were stimulated with bovine albumin. The treated cells were stained with fluorochrome-labeled anti-CXCR4 antibodies, and the amount of CXCR4 on the cell surface was measured by the intensity of CXCR4 antibody staining using FACS.

[5] = test system: TLR4; test: CD86 expression in mouse spleen after intrasplenic injection (immunopathology); format: in vivo, mice; conditions: mice which lack TLR4 function (ScN), injected into spleen
Protocol: (§1) TLR4-deficient C57BL/10ScN mice, which have a deletion in chromosome 4 that encompasses the TLR4 gene, were obtained from The National Cancer Institute (Bethesda, Md.). C57BL/10SnJ mice, which have wild type TLR4 and are congenic with C57BL/10ScN were obtained from the Jackson Laboratory (Bar Harbor, Me.).
(§2) Mice were anesthetized, and the spleen was directly visualized through an incision in the lateral abdominal wall. TLR4 activators dissolved in 50 μL of PBS were injected into the spleen as follows. The solutions were injected as a 27 gauge needle was withdrawn along the long axis of the organ. Twelve hours after injection, the spleens were harvested and frozen in liquid nitrogen for analysis of CD86 expression. Studies were performed at twelve hours because preliminary experiments indicated CD86 expression became clearly detectable at this time. Longitudinal tissue sections were prepared from the center of the spleen and stained as described elsewhere (Dempsey et al., Glycobiology, 10:467-475 (2000)) with the following modifications. Secondary detection antibodies were diluted in M.O.M. diluent (Vector Laboratories, Burlingame, Calif.) and preabsorbed with mouse serum (Jackson ImmunoResearch Laboratories, West Grove, Pa.). Fluorescent images were converted to grayscale using SPOT software (Diagnostic Instruments, Sterling Heights, Mich.).

[6] = biological target: T4, TLR4 (Mus musculus, UniProt Q9QUK6); test: as above; format: in vivo, mice; conditions: wild-type TLR4 mice, 12 hours
T4 construct: Spleens of C57BL/10SnJ mice with wild-type TLR4 (SnJ) were injected with 10 ng LPS; from tissue; host or cells: mouse spleen in vivo (C57BL/10SnJ; control C57BL/10ScN lacks the TLR4 gene)
T4 sequence (Q9QUK6 26-835): T1 sequence (Q9QUK6 26-835)
T4 sequence (Q9JHF9 19-160 partner): T1 sequence (Q9JHF9 19-160)
Protocol: as §1, §2

T3 sequence (P61073 whole entry): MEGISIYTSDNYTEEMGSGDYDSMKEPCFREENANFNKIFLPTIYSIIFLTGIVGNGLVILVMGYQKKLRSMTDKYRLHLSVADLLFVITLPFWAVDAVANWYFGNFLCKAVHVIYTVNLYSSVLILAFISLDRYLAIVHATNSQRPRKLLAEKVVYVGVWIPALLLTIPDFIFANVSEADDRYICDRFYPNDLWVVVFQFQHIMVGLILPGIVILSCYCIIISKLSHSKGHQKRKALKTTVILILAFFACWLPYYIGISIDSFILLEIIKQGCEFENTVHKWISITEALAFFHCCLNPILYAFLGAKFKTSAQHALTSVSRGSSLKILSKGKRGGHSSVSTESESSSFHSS

heparan sulfate
Activation of HEK/TLR4(+) cells (NFκB-luciferase) ([1]; 10 μg/mL heparan sulfate or 10 ng/mL LPS, 6 hours): responded both to LPS and heparan sulfate
TLR4 response to heparan sulfate ([1]; cells grown on fibronectin, 1 μg/mL HS, 4 hours): responded fully to HS

SDF-1: the agonist for CXCR4; natural ligand polypeptide
Expression of TLR4 [2]: did not alter expression of TLR4
TLR4 activation by LPS (NFκB-luciferase) ([3]; HEK/TLR4(+) cells stimulated simultaneously with LPS and 50 nM SDF-1): indifferent to the presence of LPS at any concentration tested
NFκB-luciferase reporter activation by the agent itself ([3]; HEK/TLR4(+) cells, no LPS): slight activation of the luciferase reporter

[Hisx6]SDF-1: recombinant, histidine-tagged murine SDF-1 polypeptide produced in E. coli
Amount of CXCR4 on the cell surface [4]: stimulate a decrease in CXCR4 on cell surfaces

elastase
Increase in CD86 expression [5]: not observed
Expression of CD86 in splenocytes ([6]; 0.01 U elastase into spleen): only modestly increased expression of CD86
Expression of CD86 in splenocytes ([6]; 0.1 U elastase alone): profoundly increased expression of CD86
Expression of CD86 in splenocytes ([6]; small amount (0.01 U) of elastase along with 1 ng LPS): profoundly increased expression of CD86
TLR4 response to elastase ([1]; cells grown on fibronectin): did not respond to elastase
Increase of TLR4 response to heparan sulfate versus no elastase ([1]; cells on extracellular matrix, elastase 0.1 U/mL, 1 μg/mL heparan sulfate, 4 hours): about 3 fold
TLR4 response without added agonist ([1]; cells on extracellular matrix, elastase 0.3 U/mL, 4 hours): stimulated full TLR4 responses without addition of agonist

pertussis toxin
TLR4 activation by LPS (NFκB-luciferase) ([3]; HEK/TLR4(+) cells treated with 0.1 μg/mL pertussis toxin): diminished TLR4 activation by LPS
